The values below come from patent US20180353462A1, “[…] AGENTS […] FLAVONOID DERIVATIVES TARGETING KINASES, SIRTUINS AND ONCOGENIC AGENTS FOR THE TREATMENT OF CANCERS” (priority 2015, published 2018).

The test system of experiment [1] is MCF-7 (Breast). Put plainly: WST-1 anticancer cell proliferation assay, MCF-7. It is filed as cell-based. The settings on record: 72 hours. As for the experimental part: (§1) Bioactivity of the above-described compounds has been verified by an anticancer cell proliferation assay using the WST-1 (4-[3-(4-iodophenyl)-2-(4-nitrophenyl)-2H-5-tetrazolio]-1, 3-benzene disulfonate) colorimetric assay by Roche Life Sciences®. Anticancer activity was tested against several standard cancer cell lines including brain, breast, Kaposi sarcoma, leukemia, lung, melanoma, tenosynovial giant cell tumor, ovarian, pancreatic, colon and prostate cancer. Cells were trypsinized and plated into 96 well plates in 50 μl of media and incubated overnight. The next day approximately 18 hours after plating, 50 μl of media containing the required flavonoid-based pharmaceutical composition was added per well. Cells were plated at a density so that 72 hours post drug addition, the cells will be in log phase (500)-2000 cells/well). The compounds and extracts were solubilized in Dimethyl sulfoxide (DMSO). The cells are allowed to proliferate for 72 hours 37° C. in humidified atmosphere of 5% CO2. The experiment is terminated using WST-1 (Roche®) 10 μl per well and absorbance is read at 450 nm %690 nm. The effect of drugs on growth is assessed as percent of cell viability. The IC50 values were determined from the extract dose versus control growth curves using Graphpad Prism® software. All experiments were carried out in duplicate and the mean results determined.

Experiment [2] has as its system MiaPaca-2 (Pancreatic). As to the kind of experiment: WST-1 anticancer cell proliferation assay, MiaPaca-2. It is filed as cell-based. The settings on record: 72 hours. Here is the method: as §1
For experiment [3], the system named is RL (Lymphoma). Put plainly: WST-1 anticancer cell proliferation assay, RL. It is filed as cell-based. The settings on record: 72 hours. Here is the method: as §1
For experiment [4], the target named is BRD2 (Homo sapiens, UniProt P25440). Put plainly: Inhibition of bromodomains, BRD2. It is filed as binding. The settings on record: Table 3 Bromodomain. An excerpt: (§2) Inhibition of Sirtuins, Matrix Metalloproteinase, Bromodomains was Also Confirmed Using Standard Protocols and the Results are Present in Table 2.
Experiment [5] concerns the target MMP-3 (Homo sapiens, UniProt P08254). Put plainly: Inhibition of matrix metalloproteinase, MMP-3. It is filed as biochemical. As to conditions: Table 3 Matrix metalloproteinase.
Text: as §2

Experiment [6] addresses MMP-9 (Homo sapiens, UniProt P14780). As to the kind of experiment: Inhibition of matrix metalloproteinase, MMP-9. It is filed as biochemical. As to conditions: Table 3 Matrix metalloproteinase.
Text: as §2

Experiment [7] has as its target BCL-2 (Homo sapiens, UniProt P10415). Put plainly: BCL-2 inhibition. It is filed as binding. The settings on record: Table 3.
Experiment [8] deals with CMK (leukemia). As to the kind of experiment: WST-1 anticancer cell proliferation assay, CMK. It is filed as cell-based. The settings on record: 72 hours. As for the experimental part:
as §1

For experiment [9], the system named is U2-OS (Bone). As to the kind of experiment: WST-1 anticancer cell proliferation assay, U2-OS. It is filed as cell-based. The settings on record: 72 hours. As for the experimental part: as §1

BRD2, sequence (P25440 whole entry): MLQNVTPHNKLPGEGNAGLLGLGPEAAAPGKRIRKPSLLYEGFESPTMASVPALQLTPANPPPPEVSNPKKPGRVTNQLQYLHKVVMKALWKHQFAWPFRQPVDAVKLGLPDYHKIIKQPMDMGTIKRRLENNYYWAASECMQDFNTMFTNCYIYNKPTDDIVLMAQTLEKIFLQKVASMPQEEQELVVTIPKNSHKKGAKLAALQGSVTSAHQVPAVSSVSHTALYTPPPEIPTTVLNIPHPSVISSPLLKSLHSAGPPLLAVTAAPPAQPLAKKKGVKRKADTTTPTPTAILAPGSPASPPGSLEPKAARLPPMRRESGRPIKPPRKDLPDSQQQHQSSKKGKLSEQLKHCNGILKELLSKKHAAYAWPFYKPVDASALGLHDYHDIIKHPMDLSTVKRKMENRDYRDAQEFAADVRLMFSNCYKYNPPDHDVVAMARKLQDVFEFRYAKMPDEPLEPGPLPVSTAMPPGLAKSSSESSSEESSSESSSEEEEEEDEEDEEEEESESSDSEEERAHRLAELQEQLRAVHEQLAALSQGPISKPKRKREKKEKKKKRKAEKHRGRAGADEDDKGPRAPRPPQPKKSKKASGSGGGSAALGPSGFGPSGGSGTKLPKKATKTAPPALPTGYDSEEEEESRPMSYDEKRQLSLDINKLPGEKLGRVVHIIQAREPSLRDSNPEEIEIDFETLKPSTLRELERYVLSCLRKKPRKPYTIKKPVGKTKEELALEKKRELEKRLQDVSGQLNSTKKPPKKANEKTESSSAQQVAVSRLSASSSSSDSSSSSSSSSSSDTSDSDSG
MMP-3, sequence (P08254 100-477): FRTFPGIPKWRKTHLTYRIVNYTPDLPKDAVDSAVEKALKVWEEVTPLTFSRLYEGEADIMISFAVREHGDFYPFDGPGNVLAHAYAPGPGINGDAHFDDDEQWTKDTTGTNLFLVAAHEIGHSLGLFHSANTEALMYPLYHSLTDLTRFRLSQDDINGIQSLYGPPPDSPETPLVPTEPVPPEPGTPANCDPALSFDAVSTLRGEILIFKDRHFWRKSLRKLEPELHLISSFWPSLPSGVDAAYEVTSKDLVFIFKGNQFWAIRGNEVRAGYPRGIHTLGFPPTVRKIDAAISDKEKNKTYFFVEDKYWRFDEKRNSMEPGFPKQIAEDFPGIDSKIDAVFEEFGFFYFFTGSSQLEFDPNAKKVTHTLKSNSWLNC
MMP-9, sequence (P14780 94-707): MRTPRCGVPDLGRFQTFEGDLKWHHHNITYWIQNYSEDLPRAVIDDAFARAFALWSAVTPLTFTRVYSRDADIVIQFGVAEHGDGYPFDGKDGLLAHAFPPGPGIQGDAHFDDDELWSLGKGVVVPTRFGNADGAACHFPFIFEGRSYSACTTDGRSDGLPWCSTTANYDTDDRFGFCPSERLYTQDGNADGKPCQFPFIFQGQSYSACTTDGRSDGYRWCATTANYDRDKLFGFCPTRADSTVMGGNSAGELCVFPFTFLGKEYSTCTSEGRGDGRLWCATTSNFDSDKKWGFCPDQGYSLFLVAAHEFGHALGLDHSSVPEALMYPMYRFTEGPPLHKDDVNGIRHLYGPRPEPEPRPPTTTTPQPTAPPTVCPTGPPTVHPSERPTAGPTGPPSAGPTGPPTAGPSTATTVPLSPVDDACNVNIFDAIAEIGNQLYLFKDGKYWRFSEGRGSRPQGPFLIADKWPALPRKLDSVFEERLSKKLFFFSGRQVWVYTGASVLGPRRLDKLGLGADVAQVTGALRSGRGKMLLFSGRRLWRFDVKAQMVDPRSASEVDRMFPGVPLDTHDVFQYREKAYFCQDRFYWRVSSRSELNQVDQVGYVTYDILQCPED
BCL-2, sequence (P10415 whole entry): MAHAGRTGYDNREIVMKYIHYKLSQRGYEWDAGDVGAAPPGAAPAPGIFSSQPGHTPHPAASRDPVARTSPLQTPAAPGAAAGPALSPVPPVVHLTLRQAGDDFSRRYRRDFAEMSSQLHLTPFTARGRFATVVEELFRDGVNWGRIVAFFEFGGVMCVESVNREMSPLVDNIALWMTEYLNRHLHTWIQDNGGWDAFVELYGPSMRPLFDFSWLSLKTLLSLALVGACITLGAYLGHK

Consider `COc1cc(-c2cc(=O)c3c(O)cc(O)c(C/C=C(\C)CCC=C(C)C)c3o2)ccc1O` [FBL-03C], for which the half-inhibitory concentration (IC50) in experiment [1] is 12 µM; in experiment [2], 9.5 µM; in experiment [3] it was 12 µM.
As to `COc1cc(-c2cc(=O)c3c(O)cc(O)c(CC=C(C)C)c3o2)ccc1O` [FBL-03G], the concentration for half-maximal inhibition (IC50) came to 12 µM in experiment [4]; 66.3 µM in experiment [5]; 85.4 µM in experiment [6]; 2.49 µM in [7]; 1.78 µM in [8]; 8.7 µM in experiment [9].
For the compound `COc1cc(-c2cc(=O)c3c(O)c(C/C=C(\C)CCC=C(C)C)c(O)cc3o2)ccc1O` [FBL-03A], the concentration for half-maximal inhibition (IC50) was found to be 17 µM in [1], 16 µM in experiment [2] and 5.9 µM in experiment [3].
As for `COc1cc(-c2cc(=O)c3c(O)c(CC=C(C)C)c(O)cc3o2)ccc1O` [FBL-03B], the IC50 in experiment [4] was 9.52 µM; in experiment [8], 11.6 µM; in [9] it was 19.4 µM.
